# How the values were obtained:
# Aliivibrio fischeri = conditions: 10 µM
# Protocol: All the synthesized derivatives were subjected to the Microtox test. […] The acute toxicity of the tested compounds was measured using the Microtox test. For the measurements, the 81.9% screening test procedure was applied using the Microtox [MUT] apparatus along with the Microtox Omni 4.2 software supplied by the manufacturer (Modern Water plc). Briefly, the bioluminescence of bacterial suspension was measured before the addition of the solution of the tested compound and after 5 and 15 min upon exposure. […] As the control, 2% sodium chloride solution was used (Modern Water Microtox Diluent).
# 5637 cells = assay: MTT assay, cytotoxicity towards 5637 bladder cancer cells; format: cell-based, human; conditions: for IC50: Homo sapiens, MTT; for cell viability: preliminary experiment (10 µM implied)
# Protocol: (§1) Human urinary bladder grade II carcinoma cell line (5637), human urinary bladder carcinoma (HT-1376), and human lung fibroblasts (MRC-5) were purchased from ATCC (Manassas, VA, USA). The 5637 cells were grown in RPMI, HT-1376 cells were cultured in EMEM, and MRC-5 in DMEM. All media were supplemented with 10% (v/v) FBS, 2 mM L-glutamine, 100 U/mL penicillin, and […] streptomycin (1% v/v). The cells were cultured at 37 °C in a humidified atmosphere with 5% CO2.
# (§2) Tested compounds were dissolved in DMSO at a concentration of 10 mM for preliminary study. […] Stock solutions were stored in the dark at -20 °C.
# (§3) For the preliminary experiments, the 5637 cells were used. The compounds were prepared in the cell culture medium at a concentration of 0.1 µM, 1 µM, and 10 µM. DMSO was used as a control. […] Cells were treated with compounds for 24, 48, and 72 h. Cells were washed twice with DPBS, and 170 µL of MTT solution at a final concentration of 0.59 mg/mL in culture medium was added. Cells were incubated with MTT solution for 1.5 h at standard cell culture conditions. After incubation, MTT was removed, and formazan crystals were dissolved with 200 µL DMSO. The absorbance was measured at a wavelength of 570 nm using a plate reader (Biotek Instruments, Elx-800, Winooski, VT, USA).
# (§4) Subsequently, cells were treated with compound 4a at a concentration of 0.5 µM, 1 µM, 2 µM, 4 µM, 6 µM, and 8 µM and compound 5b at a concentration range of 2 µM, 4 µM, 6 µM, 8 µM,10 µM, and 15 µM for 24 h and 48 h. […] The MTT assay was performed as described above.
# (§5) The IC50 values were calculated using the GraphPad Prism 8 software (GraphPad Software, Inc., La Jolla, CA, USA), and cell viability was expressed as a percentage of the control. At least three biological replicates were performed for each compound.
# HT-1376 cells = assay: MTT assay, cytotoxicity towards HT-1376 bladder cancer cells; format: cell-based, human
# Protocol: as §1, §2, §3, §4, §5
# [1] = MTT assay, cytotoxicity towards non-cancerous MRC-5 fibroblasts; format: cell-based, human; conditions: human, MRC-5 lung fibroblasts, MRC-5 cells, 24 h, read-out: cell viability
# Protocol: as §1, §2, §3, §4, §5
# MRC-5 cells = assay: as above; format: cell-based, human; conditions: for IC50: Homo sapiens, MTT; for effect on viability of MRC-5 cells: all tested concentrations (2-15 µM), 24 and 48 h
# Protocol: as §1, §2, §3, §4, §5
# [2] = Homo sapiens, HT-1376, 24 h, 24 h
# [3] = Homo sapiens, HT-1376, 48 h, 48 h
decrease in bioluminescence (Aliivibrio fischeri),Structure (SMILES),effect on viability of cancer cells (5637 cells; 10 µM),IC50 (HT-1376 cells; 24 h),IC50 (HT-1376 cells; [2]),IC50 (HT-1376 cells; [3]),"viability at 24 h, 6 µM ([1]; 6 µM)","viability at 24 h, 8 µM ([1]; 8 µM)","IC50 (MRC-5 cells; MRC5, 24 h)","IC50 (MRC-5 cells; MRC5, 48 h)",IC50 (5637 cells; 24 h),IC50 (5637 cells; 48 h),cell viability (5637 cells; 48 h of incubation),cell viability (5637 cells; 72 h of incubation),effect on viability of MRC-5 cells (MRC-5 cells),effect on viability of MRC-5 cells (MRC-5 cells; listed as flavone derivative with 7-(2-methyl-5-phenylpyrrol-1-yl))
80%,"Cc1ccc(C)n1-c1ccc2oc(-c3ccccc3)cc(=O)c2c1 [4a, 6-(2,5-Dimethylpyrrol-1-yl)-2-phenylchromen-4-one]",did not affect the viability,–,–,–,–,–,–,–,–,–,–,–,–,–
–,"Cc1ccc(-c2ccccc2)n1-c1ccc2oc(-c3ccccc3)cc(=O)c2c1 [4b, 6-(2-Methyl-5-phenylpyrrol-1-yl)-2-phenylchromen-4-one]",–,5.89 ± 1.1 µM,~5 µM,5.37 ± 1.44 µM,57%,52%,> 8 µM,5.21 ± 0.1 µM,2.97 ± 0.17 µM,2.12 ± 0.19 µM,–,–,–,–
–,"Cc1ccc(C)n1-c1ccc2c(=O)cc(-c3ccccc3)oc2c1 [5a, 7-(2,5-Dimethylpyrrol-1-yl)-2-phenylchromen-4-one]",–,–,–,–,–,–,–,–,–,–,75.8%,48%,–,–
–,"Cc1ccc(-c2ccccc2)n1-c1ccc2c(=O)cc(-c3ccccc3)oc2c1 [5b, 7-(2-Methyl-5-phenylpyrrol-1-yl)-2-phenylchromen-4-one]",–,13.5 ± 1.41 µM,~13 µM,11.7 ± 1.74 µM,–,–,> 15 µM,> 15 µM,7.39 ± 2.02 µM,4.61 ± 0.1 µM,–,–,did not decrease cell viability,without any effect

# — article PMC11876692, “Synthesis, physicochemical characterization and biological activity of novel pyrrole flavones” (Scientific Reports, 2025)
